Results published in patent US20140371165A1, “Identification of NSC23925 Isomers to Reverse Multidrug Resistance in Human Cancers” (priority 2012, published 2014).

Experiments:
SKOV-3TR = test: MTT cytotoxicity assay and reversal of MDR in SKOV-3TR; format: cell-based, human; settings: for potency of isomer on reversing drug resistance: with paclitaxel, MTT 6 days post-treatment; for IC50: Homo sapiens, SKOV3TR, 144 h, without NSC23925b, MTT, 6 days, read-out: IC50 of chemotherapy drug alone
Source text: (§1) A panel of parental cancer cell line and their daughter resistant cell lines, displaying MDR phenotype were used in this study. Human ovarian cancer cell line SKOV-3, breast cancer cell line MCF-7 and colon cancer cell line SW480, the osteosarcoma cell line U-2OS, KHOS, uterine sarcoma cell line MESSA and its doxorubicin selected drug resistant cell line MESSA/Dx5, non-small cell lung cancer cell line H-69 and its doxorubicin selected drug resistant cell line H-69AR (overexpress MRP1) were obtained from the ATCC (Rockville, Md.). Dr. Efstathios Gonos (Institute of Biological Research & Biotechnology, Athens, Greece) provided the doxorubicin resistant U-2OS R2 (referred in the text below as U-2OSDR), KHOS R2 cell lines. Dr. Erasmus Schneider (Wadsworth Center, Albany) provided the mitoxantrane resistant breast cancer MCF-7/MX (overexpress BCRP) cell line. All the cell lines were cultured in RPMI 1640 (Invitrogen, Carlsbad, Calif.) supplemented with 10% fetal bovine serum, 100-units/ml penicillin and 100 μg/ml streptomycin (Invitrogen). Cells were incubated at 37° C. in 5% CO2-95% air atmosphere and passaged when near confluent monolayers were achieved using 2% trypsin-EDTA solution. […] The fresh chemotherapy drugs were obtained from the pharmacy at the Massachusetts General Hospital and stored at −20° C.
(§2) To evaluate for reversal of Pgp-mediated MDR, SKOV-3TR, MCF-7adr and SW480TR cell lines were seeded into 96-well tissue culture plate at 2,000 cells per well with varying concentrations of chemotherapy drugs and NSC23925b for 6 days. Cell proliferation IC50 (concentration required for 50% inhibition) and MDR reversal IC50 were determined from dose-response curves carried out in triplicate in 96-well plate. Fold of reverse resistance for individual drugs were defined as the IC50 of MDR cells without NSC23925b treatment divided by the IC50 of MDR cells treated with NSC23925b. […] Drug cytotoxicity was assessed in vitro using the MTT assay as previously described. […] Response curves were fitted with use of GraphPad PRISM 4 software (GraphPad Software).
Structure and activity relationship (SAR) of the four NSC23925 isomers for reversing MDR were evaluated in human ovarian cancer MDR cell line SKOV-3TR by MTT assay (FIGS. 1A-D). Cells were treated with the paclitaxel and NSC23925 diastereomers NSC23925a (FIG. 1A), NSC23925b (FIG. 1B), NSC23925c (FIG. 1C) and NSC23925d (FIG. 1D) in RPMI1640 complete media at the indicated concentrations. The relative sensitivity of each line to paclitaxel was determined by MTT analysis 6 days post-treatment.

[1] = Solubility in organic solvents; format: physicochemical; settings: volume of methanol for 5 milligram
MCF-7adr = test: MTT cytotoxicity assay and reversal of MDR in MCF-7adr; format: cell-based, human; settings: Homo sapiens, NCI/ADR-RES, 144 h, without NSC23925b, MTT, 6 days, read-out: IC50 of chemotherapy drug alone
Source text: as §1, §2
(§3) MCF-7adr and SW480TR cells were treated with paclitaxel (FIGS. 2A-B), doxorubicin (FIGS. 2C-D) or mitoxantrane (FIGS. 2E-F) and NSC23925b in RPMI1640 complete media at the indicated concentrations. The relative sensitivity of each line to the indicated drugs was determined by MTT analysis 6 days post-treatment.

SW480TR = test: MTT cytotoxicity assay and reversal of MDR in SW480TR; format: cell-based, human; settings: Homo sapiens, 144 h, without NSC23925b, MTT, 6 days, read-out: IC50 of chemotherapy drug alone
Source text: as §1, §2, §3

[2] = test system: SKOV-3TR xenograft tumors; test: SKOV-3TR xenograft tumor growth in nude mice; settings: alone; i.p. twice a week for two weeks; paclitaxel 20 mg/kg or NSC23925b 40 mg/kg
Experimental: The Crl:SHO-Prkdc^SCIDHr^hr nude female mice at approximately 3-4 weeks of age were purchased from The Charles River Laboratories (Ann Arbor, Mich.). Animal studies were carried out with protocols approved by the Massachusetts General Hospital Subcommittee on Research Animal Care (SRAC). To determine the effect of NSC23925b on paclitaxel sensitivity in xenograft model, 5×10^6 SKOV-3TR cells were injected subcutaneously with matrigel (BD Biosciences, San Jose, Calif.) on day one. Two weeks after injection, the mice were divided into four groups to start the treatments. Group one was received intraperitoneal (i.p) injection with normal saline, group two with paclitaxel (20 mg/kg), group three with NSC23925b (40 mg/kg). […] All four groups were treated twice a week for two weeks. The health of the mice and evidence of tumor growth were examined daily. Tumors were measured twice a week with a digital caliper. Tumor volume (mm^3) was calculated as (W^2×L)/2, where W is width and L is length. The curve of tumor growth was drawn according to tumor volume by using of GraphPad PRISM 4 software.
To further evaluate the effects of NSC23925b and paclitaxel combination therapy on the tumor growth of resistant cells, the growth of xenograft tumors were examined. A well-characterized ovarian cancer MDR cell line SKOV-3TR was chosen for in vivo studies. […] Tumors were measured twice a week with a digital caliper. Tumor volume (mm^3) was calculated as (W^2×L)/2, where W is width and L is length (FIG. 5A). Representative images of dissected tumor tissues from treated nude mice.

| Compound | potency of isomer on reversing drug resistance (SKOV-3TR) | 5 milligram solubility in methanol [1] [µL] | IC50 (SKOV-3TR) [µM] | IC50 (MCF-7adr) [µM] | IC50 (SW480TR) [µM] | effect on paclitaxel resistant tumor cell growth, single agent [2] |
| --- | --- | --- | --- | --- | --- | --- |
| COc1ccc(-c2cc([C@@H](O)[C@H]3CCCCN3)c3ccccc3n2)cc1.Cl (single isomer, unassigned) [NSC23925c, (2-(4-methoxyphenyl)quinolin-4-yl)(piperidin-2-yl)methanol hydrochloride] | modest but lesser activity | 150 | – | – | – | – |
| COc1ccc(-c2cc([C@H](O)[C@@H]3CCCCN3)c3ccccc3n2)cc1.Cl (single isomer, unassigned) [NSC23925d, (2-(4-methoxyphenyl)quinolin-4-yl)(piperidin-2-yl)methanol hydrochloride] | modest but lesser activity | 150 | – | – | – | – |
| COc1cccc2c1C(=O)c1c(O)c3c(c(O)c1C2=O)C[C@@](O)(C(=O)CO)C[C@@H]3O[C@H]1C[C@H](N)[C@H](O)[C@H](C)O1 [Doxorubicin, reference compound] | – | – | 38.5 ± 2.6 | 3.8 ± 0.12 | 0.84 ± 0.16 | – |
| O=C1c2c(O)ccc(O)c2C(=O)c2c(NCCNCCO)ccc(NCCNCCO)c21 [Mitoxantrane, reference compound] | – | – | 0.46 ± 0.06 | 0.32 ± 0.06 | 0.27 ± 0.03 | – |
| COc1ccc(-c2cc([C@@H](O)[C@@H]3CCCCN3)c3ccccc3n2)cc1.Cl [NSC23925a, (2-(4-methoxyphenyl)quinolin-4-yl)(piperidin-2-yl)methanol hydrochloride] | least potency | 650 | – | – | – | – |
| CC(=O)O[C@H]1C(=O)[C@@]2(C)[C@H]([C@H](OC(=O)c3ccccc3)[C@]3(O)C[C@H](OC(=O)[C@H](O)[C@@H](NC(=O)c4ccccc4)c4ccccc4)C(C)=C1C3(C)C)[C@]1(OC(C)=O)CO[C@@H]1C[C@@H]2O [Paclitaxel, reference compound] | – | – | 0.57 ± 0.03 | 0.62 ± 0.12 | 0.12 ± 0.08 | no significant effects |
